“Also recorded” adds a separate entry of the source.
What was measured:
[1] = tested on: NAD+ levels; assay: NAD+ measurement in skeletal muscle of NMN-treated mice; type: in vivo, C57BL/6J mice; settings: for levels of cellular NAD+: young and old
Experimental: (§1) C57BL/6J mice of 3, 6, 22, 24, or 30 months of age were obtained from the National Institutes of Aging mouse aging colony. Mice were acclimated for at least one-week prior to sacrifice. 3, and 24-month-old mice were given interperitoneal (IP) injections of 500 mg NMN/kg body weight per day or the equivalent volume of PBS for 7 consecutive days at 5:00 pm and 7:00 am on day 8 and sacrificed 4 hr after last injection. All animal studies followed the guidelines of and were approved by the Harvard Institutional Animal Care and Use Committee
NAD^+ from C2C12 cells and skeletal muscle was quantified with a commercially available kit (BioVision) according to the manufacturer's instructions and as described before (Gomes et al., Biochim. Biophys. Acta. 1822:185-195 (2012)).
(§2) C57BL/6J mice of 6, 22, or 30 months of age were obtained from the National Institutes of Aging mouse aging colony. Additionally 22 months old caloric restricted mice were also obtained from the National Institutes of Aging mouse aging colony. EGLN1 KO, SIRT1 KO and SIRT1 OE mice were generated as previously described (Minamishima et al., 2008; Price et al., 2012). Mice were acclimated for at least one-week prior to sacrifice. 3, 6, 22 and 24-month-old mice were given interperitoneal (IP) injections of 500 mg NMN/kg body weight per day or the equivalent volume of PBS for 7 consecutive days at 5:00 pm and 7:00 am on day 8 and sacrificed 4 hr after last injection.
NAD^+ from skeletal muscle was quantified with a commercially available kit (BioVision) according to the manufacturer's instructions and as described before (Gomes et al., 2012).
C57BL/6J mice of 3, 6, 22, or 24 months of age were obtained from the National Institutes of Aging mouse aging colony. Mice were acclimated for at least one-week prior to sacrifice. […]
NAD^+ from C2C12 cells and skeletal muscle was quantified with a commercially available kit (BioVision) according to the manufacturer's instructions and as described before (Gomes et al., 2012).

[2] = tested on: mitochondrial-encoded genes (ND1, Cytb, COX1 and ATP6); assay: qPCR of mitochondrial-encoded genes in gastrocnemius of NMN-treated mice; type: in vivo
Text: as §2
Whole body adult-inducible Egln1 knockout mice (Minamishima et al, 2007) were treated with IP injection of tamoxifen for 3 days after which they were allowed to rest. The mice were given interperitoneal (IP) injections of 500 mg NMN/kg body weight per day or the equivalent volume of PBS for 7 consecutive days at 5:00 pm and 7:00 am on day 8 and sacrificed 4 hr after last injection. All animal studies followed the guidelines of and were approved by the Harvard Institutional Animal Care and Use Committee.
RNA from skeletal muscle tissue and C2C12 cells were extracted with RNeasy mini kit (Qiagen) according to the instructions and quantified using the NanoDrop 1000 spectrophotometer (Thermo Scientific). cDNA was synthesized with the iSCRIP cDNA synthesis kit (BioRad) using 600 ng of RNA. Quantitative RT-PCR reactions were performed using 1 μM of primers and LightCycler® 480 SYBR Green Master (Roche) on an LightCycler® 480 detection system (Roche). Calculations were performed by a comparative method (2-ΔCT) using 18S as an internal control. For mtDNA analysis, total DNA was extracted with DNeasy blood and tissue kit (Qiagen). mtDNA was amplified using primers specific for the mitochondrial cytochrome c oxidase subunit 2 (COX2) gene and normalized to genomic DNA by amplification of the ribosomal protein s18 (rps18) nuclear gene. […]

[3] = tested on: Atrogin-1 and MuRF1; assay: Immunoblot for muscle wasting markers in gastrocnemius; type: in vivo; settings: skeletal muscle of old (22-month-old) mice; NMN
Text: as §2
(§3) Protein extracts from tissue or C2C12 cells were obtained by lysis in ice-cold lysis buffer (150 mM NaCl, 10 mM Tris HCl (pH 7.4), 1 mM EDTA, 1 mM EGTA, 1% Triton X-100, 0.5% NP-40) supplemented with a cocktail of protease and phosphatase inhibitors (Roche). Protein content was determined by the Bradford protein assay (Biorad), and 50 μg proteins were run on SDS-PAGE under reducing conditions. The separated proteins were then electrophoretically transferred to a polyvinylidene difluoride membrane (Perkin-Elmer). […] The immunostaining was detected using horseradish peroxidase-conjugated anti-rabbit or anti-mouse immunoglobulin for 1 h at room temperature.

[4] = tested on: AKT and IRS-1; assay: Insulin signaling (phosphorylation of AKT and IRS-1) in skeletal muscle; type: in vivo; settings: soleus of old mice treated with NMN
Text: as §2, §3

[5] = tested on: inflammation related markers (TNFa, IL-6, IL-18); assay: qPCR of inflammation related markers in gastrocnemius; type: in vivo, C57BL/6J mice; settings: 22-month-old mice, NMN IP 500 mg/kg/day, 7 days, 500 mg/kg/day
Experimental: as §1, with “6, 22, or 24” for “6, 22, 24, or 30”, “22, or 24 months of” for “24, or 30 months of”, “sacrifice. 3, 6, 22 and 24-month-old” for “sacrifice. 3, and 24-month-old”
C57BL/6J mice of 6 months of age were given interperitoneal (IP) injections of 300 mg DMOG/kg body weight per day or the equivalent volume of PBS for 5 consecutive days. All animal studies followed the guidelines of and were approved by the Harvard Institutional Animal Care and Use Committee
RNA from skeletal muscle and aorta were extracted with RNeasy mini kit (Qiagen) according to the instructions and quantified using the NanoDrop 1000 spectrophotometer (Thermo Scientific). cDNA was synthesized with the iSCRIP cDNA synthesis kit (BioRad) using 600 ng of RNA. Quantitative RT-PCR reactions were performed using 1 μM of primers and LightCycler® 480 SYBR Green Master (Roche) on an LightCycler® 480 detection system (Roche). Calculations were performed by a comparative method (2-ΔCT) using 18S as an internal control. […]

[6] = tested on: inflammation related markers in aortas; assay: qPCR of inflammation related markers in aortas; type: in vivo, C57BL/6J mice; settings: 22-months-old mice, NMN IP 500 mg/kg/day, 7 days
Experimental: as §1, with “6, 22, or 24” for “6, 22, 24, or 30”, “22, or 24 months of” for “24, or 30 months of”, “sacrifice. 3, 6, 22 and 24-month-old” for “sacrifice. 3, and 24-month-old”
RNA from skeletal muscle and aorta were extracted with RNeasy mini kit (Qiagen) according to the instructions and quantified using the NanoDrop 1000 spectrophotometer (Thermo Scientific). cDNA was synthesized with the iSCRIP cDNA synthesis kit (BioRad) using 600 ng of RNA. Quantitative RT-PCR reactions were performed using 1 μM of primers and LightCycler® 480 SYBR Green Master (Roche) on an LightCycler® 480 detection system (Roche). Calculations were performed by a comparative method (2-ΔCT) using 18S as an internal control. Primers were designed using the IDT software (IDT).

[7] = tested on: VHL; assay: Immunoblot for VHL in gastrocnemius of NMN-treated mice; type: in vivo; settings: 22-month-old mice, NMN one week
Text: as §2, §3

For `NC(=O)c1ccc[n+]([C@@H]2O[C@H](COP(=O)([O-])O)[C@@H](O)[C@H]2O)c1` [NMN, nicotinamide mononucleotide], the “levels of cellular NAD+” value ([1]; 3- and 24-month-old C57BL/6J mice, NMN 500 mg/kg IP, one week, treated vs untreated) was “approximately 2 fold”, the “levels of cellular NAD+” value ([1]; 6- and 22-month-old C57BL/6J mice, NMN one week) was 2 fold and the “NAD+ levels in the skeletal muscle of old mice” value ([1]; gastrocnemius, 3- and 24-month-old C57BL6J mice, NMN IP 500 mg/kg/day, 7 days, colorimetric NAD+ assay) was “increases NAD+ levels”. The “mitochondrial-encoded genes in the skeletal muscle” value ([2]; Egln1 KO mice treated with NMN, compared to WT controls) was “did not restore”, the “ability of NMN to induce mitochondrially-encoded genes” value ([2]; inducible SIRT1 KO mice, skeletal muscle) was “lost in animals lacking SIRT1” and the “expression of mitochondrial-encoded genes” value ([2]; old (22-month-old) mice, gastrocnemius, NMN one week) was “restored”. The “muscle wasting markers Atrogin-1 and MuRF1” value [3] was “completely reversed”, the “insulin signaling (phosphorylation of AKT and IRS-1)” value [4] was “restore insulin signaling” and the “expression of inflammation markers (TNFa, IL-6, IL-18) in the skeletal muscle” value [5] was “completely reversed; also recorded: reverses age-related increase in inflammatory markers in the skeletal muscle”. For the same molecule, the “inflammation related markers (IL-6, TNFa, Nlrp3, IL-1b, CD68 and IL-10) in aortas” value ([6]; FIG. 26) was “reduces inflammation in aortas from old mice”, the “inflammatory markers (VEGF and IL-18) in aortas” value ([6]; FIG. 27) was “reduces inflammation in aortas from old mice” and the VHL protein [7] was “reversed the age-induced decline in VHL”.
